In patent publication US9034862B2, “Compositions and methods for the treatment of cancer” (priority 2011, dated 2015):
Like-named read-outs stand apart in the source and are kept apart here.

How the values were obtained:
[1] = tested on: GLuc expression in A549 cells; assay: Transcription assay, globally platinated pGLuc, A549; type: cell-based, human; conditions: for transcription level (normalized against unplatinated plasmid): Pt/DNA ratio of […] for phenanthriplatin
Experimental: Transfection of transcription probes into A549 and HT29 cells with the pGLuc plasmid was carried out using liposomal transfecting agents. Determination of expression levels was tested by Luciferase assays monitored by a luminometer (J. Am. Chem. Soc. 2010, 132, 7429-7435). A549 cells were plated in 96-well plates at 2,000 cells/well and HT29 cells were plated in 96-well plates at 6,000 cells/well. After 48 h incubation (at ˜30% confluence), cells were transfected with 50 ng of platinated plasmids in 25 μL Opti-MEM and 0.125 μL Lipofectamine 2000, and subsequently 50 μL of antibiotics-free DMEM supplemented with 10% FBS. After 2 h, the cells were washed with medium and 100 μL of fresh medium was added. The experiment was carried out in quadruplicate.
GLuc activity was monitored using a luminescence plate reader (Synergy 2, BioTek, Winooski, Vt., USA). A 10 μL volume of medium at different time points (12, 24, 36, 48, 60 h) was transferred into opaque white 96-well plates, and 25 μL of GLuc assay solution (10 μM colelenterazine (NanoLight Technologies, Pinetop, Ariz., USA) in 2.5 mM acidified methanol (100 mM HCl), buffer (10 mM Tris-HCl pH 7.8, 1 mM EDTA, 0.6 M NaCl)) was added by the automatic injector of the instrument.
In another embodiment, A549 or HT29 cells were transfected using the platinated transcription probes, and transcription levels were investigated by determining GLuc expression as measured by […] following addition of coelenterazine as a substrate for the exported enzyme. The emission intensities were normalized against unplatinated plasmids as a control. Transcription profiles were obtained by plotting normalized levels of GLuc expression against platination levels (Pt/plasmid ratio) at five different time points. […] An increase in D0 value at different time points represents restoration of transcription.

[2] = equimolar N-AcMet, 37° C.
Experimental: NMR spectra were collected on a Varian 500 spectrometer equipped with a triple-resonance broadband inverse probe and a variable temperature unit. The 1-D ^1H NMR kinetic studies were performed in duplicate as a standard time-arrayed experiment using a variable delayed list. Incremented 1-D spectra were processed in exactly the same way and signals of aromatic amine ligands from platinum compounds were integrated. The relative concentrations of the platinum compound at each time point were calculated from peak integrals. […] Reactions of platinum compounds with N-AcMet were performed in NMR tubes containing 2 mM of the Pt complex and 2 mM (1 equiv) of N-AcMet in 10 mM PBS buffer, D2O, pH*7.4 at 37° C. […] Deuterated 3-(trimethylsilyl)propionic acid sodium salt (TMS-PFASS) was used as an internal standard. The pH* values are the measured pH values without correction for the effect of deuterium on the electrode.

[3] = tested on: Gaussia luciferase expression in human cancer cells; conditions: for Transcription (normalized against unplatinated control): NoPt = 100, cell line not stated
Experimental: (§1) Vector Construction and Preparation. […] Preparation of Platinated Insertion Strand. […] The suspension was centrifuged. To a solution of 0.2 mM 16-mer oligonucleotide 5′-[…]*[…] The reaction mixture was incubated in the dark at 37° C. overnight. The reaction was stopped when the solution was frozen. […] After purification, the platinated DNA solution was dialyzed against H2O and lyophilized. […] The insertion strand was further analyzed for nucleotide composition by nuclease S1 digestion to confirm the platination site following a protocol published previously (Table 13) (e.g., see J Am Chem Soc 2007, 129, 6370-6371). The platinated and unplatinated DNA strands (40 μM) were phosphorylated by T4 PNK (0.67 U/μL) at 37° C. for 3 h, followed by a phenol/chloroform/isoamyl alcohol extraction to remove the enzyme. The phosphorylated DNA strands were ethanol precipitated and stored in −80° C. at a concentration of 100 pmol/μL.
(§2) Briefly, a 600 μg quantity of pGLuc8temG plasmid was digested with 30 U Nt.BbvCI at 37° C. for 1 h. The reaction mixture was heated at 80° C. for 20 min to deactivate the enzyme, followed by a phenol/chloroform/isoamyl alcohol extraction to remove the enzyme. The mixture was dialyzed against H2O overnight at 4° C. The plasmid was further digested with 30 U Nt.BspQI at 50° C. for 1 h, and the enzyme was heat-deactivated and removed by a phenol/chloroform/isoamyl alcohol extraction. The nicked plasmid was mixed with 1,000 equiv of complementary DNA strand 5′-[…] (SEQ ID NO: 2) in a buffer of 10 mM Tris-HCl, 2 mM MgCl2, 0.4 M NaCl, pH 7.4, heated at 80° C. for 5 min, and subsequently cooled at 4° C. for 5 min for 10 cycles. […] A 120 μg quantity of the gapped plasmid was annealed with 100 equiv of the insertion strand in a buffer of 10 mM Tris-HCl, 2 mM MgCl2, 0.4 M NaCl, pH 7.4 from 90° C. to 4° C. at −1° C./min in a thermocycler. The platinated plasmid was dialyzed against H2O at 4° C. overnight and further purified by treatment with 30 U BsmBI at 55° C. for 1 h. The closed-circular form of plasmid was purified and concentrated by isopycnic centrifugation, followed by n-butanol extraction and ethanol precipitation. The plasmids were quantitated by a Quant-iT™ PicoGreen® dsDNA Kit from Invitrogen (Carlsbad, Calif.), and stored in −80° C. in TE buffer (10 mM Tris-HCl, 2 mM EDTA, pH 7.4).
(§3) Transfection of platinated plasmids into mammalian cells was carried out as reported previously (e.g., see ChemBioChem 2011, 12, 1115-1123). A549 and HeLa cells were plated at 2,000 cells per well in 96-well plates. NTera-2 and HT29 cells were plated at 4,000 cells per well in 96-well plates. MCF7 and U2OS cells were plated at 5,000 cells per well in 96-well plates. The cells were allowed to attach and grow for 48 h, and then washed with antibiotic-free culture media right before transfection. Transient transfection of the cells was carried out using Lipofectamine 2000. Briefly, 10 ng of site specifically platinated probes was included in each well. The experiments were performed in quadruplicate. The probes were diluted in OptiMEM, and Lipofectamine was diluted in OptiMEM. The two solutions were combined and incubated for 20 min. The transfection mixture was delivered into each well, and the cells were incubated for 2 h. The cells were washed with antibiotic-free culture media to remove the transfection mixture. A 100 μL volume of fresh, antibiotic-free media was added into each well to start the transcription assay. […]

[4] = tested on: Gaussia luciferase expression in HT29 cells; conditions: ratio of recovery of transcription level vs. time
Experimental: as §1, §2, §3

[5] = tested on: Gaussia luciferase expression in HeLa cells; conditions: ratio of recovery of transcription level vs. time
Experimental: as §1, §2, §3

[6] = tested on: Gaussia luciferase expression in U2OS cells; conditions: ratio of recovery of transcription level vs. time
Experimental: as §1, §2, §3

[7] = tested on: Gaussia luciferase expression in MCF7 cells; conditions: ratio of recovery of transcription level vs. time
Experimental: as §1, §2, §3

[8] = tested on: Gaussia luciferase expression in A549 cells; conditions: ratio of recovery of transcription level vs. time
Experimental: as §1, §2, §3

**Q.** For “cis-[Pt(NH3)2(phenanthridine)Cl]NO3 [phenanthriplatin]”, which “transcription level (normalized against unplatinated plasmid)” value ([1]; A549, 12 h) is on record?
**A.** The value was 19.5%.

**Q.** And the “D0 (Pt lesions per plasmid required to reduce transcription levels to 37% of control)” value ([1]; A549, 12 h after transfection)?
**A.** Its value is 14.2 Pt/plasmid.

**Q.** And the “D0 (Pt lesions per plasmid required to reduce transcription levels to 37% of control)” value ([1]; A549, 24 h after transfection)?
**A.** Its value is 17.3 Pt/plasmid.

**Q.** And the “D0 (Pt lesions per plasmid required to reduce transcription levels to 37% of control)” value ([1]; A549, 36 h after transfection)?
**A.** Its value is 22.2 Pt/plasmid.

**Q.** And the “D0 (Pt lesions per plasmid required to reduce transcription levels to 37% of control)” value ([1]; A549, 48 h after transfection)?
**A.** Its value is 31.6 Pt/plasmid.

**Q.** And the “transcription level (normalized against unplatinated plasmid)” value ([1]; A549, 60 h)?
**A.** The value was 51.1%.

**Q.** What about the “D0 (Pt lesions per plasmid required to reduce transcription levels to 37% of control)” value ([1]; A549, 60 h after transfection) of the same substance?
**A.** The value was 39.8 Pt/plasmid.

**Q.** And the “second-order rate constant, reaction with N-AcMet” value [2]?
**A.** Its value is 0.00944 M⁻¹ s⁻¹.

**Q.** What about the “Transcription (normalized against unplatinated control)” value ([3]; 16 hours) of the same substance?
**A.** Its value is 26.

**Q.** And the “Transcription (normalized against unplatinated control)” value ([3]; 24 hours)?
**A.** Its value is 32.

**Q.** What about the “Transcription (normalized against unplatinated control)” value ([3]; 32 hours) of the same substance?
**A.** The value was 36.

**Q.** What about the “Transcription (normalized against unplatinated control)” value ([3]; 44 hours) of the same substance?
**A.** Its value is 41.

**Q.** And the “transcription inhibition in live mammalian cancer cells” value ([3]; site-specific cis-[Pt(NH3)2(phen)]2+-dG lesion)?
**A.** Its value is “strong transcription inhibitor”.

**Q.** And the “recovery rate of transcription (S)” value [4]?
**A.** The value was 0.884.

**Q.** What about the “recovery rate of transcription (S)” value [5] of the same substance?
**A.** Its value is 0.434.

**Q.** And the “recovery rate of transcription (S)” value [6]?
**A.** The value was 0.805.

**Q.** And the “recovery rate of transcription (S)” value [7]?
**A.** The value was 0.337.

**Q.** And the “recovery rate of transcription (S)” value [8]?
**A.** Its value is 0.263.
